# Marks after values point to notes of the source that are not given here.
# Tests used:
# [1] = test system: high-fat diet-induced DIO mice; experiment: Oral glucose tolerance test (OGTT) in high-fat diet-induced DIO mice; type: in vivo
# From the text: Normal male C57BL6/J mice (8-9 weeks old) were housed 3-4 per cage and fed a high-fat, high-cholesterol, high-fructose diet (D09100310, Research Diets) for 13 weeks with unrestricted access to water. After 13 weeks of high-fat, high-cholesterol, high-fructose diet feeding, the mice were randomly divided into 5 groups based on body weight and blood glucose levels, with age-matched mice fed a normal diet serving as the normal blank control group, with 6 mice in each group. Under fasting conditions (16 hours), the test compound 169 was administered via oral gavage at different concentrations of 0.03, 0.1, 0.6, and 3 mg/kg, while the normal blank control and model control groups were given the vehicle (15% solutol + 85% DDW solution), with a dosing volume of 10 mL/kg. On the day of administration, blood glucose levels in mice were measured. 2 hours after oral gavage administration, each group was given 2 g/kg of glucose orally. Blood glucose levels were measured at 0, 15, 30, 60, 90, 120, and 150 minutes after glucose administration.
# Blood glucose levels were measured at 0, 15, 30, 60, and 120 minutes after glucose administration. […]
# Note: BG0, BG15, BG30, BG60, BG90, and BG120 represent the blood glucose levels at 0, 15, 30, 60, 90, and 120 minutes after glucose administration, respectively.
# (§1) Data were expressed as mean ± standard deviation. One-way ANOVA was employed for statistical analysis, with p < 0.05 considered statistically significant.
# C57BL6/J mice = experiment: In vivo pharmacodynamic assay for non-alcoholic fatty liver disease (high-fat, high-cholesterol, high-fructose diet mice); conditions: for Hepatic Hydroxyproline / Total Liver Hydroxyproline (µg/liver): liver; for ALT (U/L) / AST (U/L): serum
# Procedure: Normal male C57BL6/J mice ([…]) were fed a high-fat, high-cholesterol, high-fructose diet (D09100310, Research Diets) for 20 weeks. Based on body weight and biochemical data, the mice were randomly divided into groups, with 6 mice per group. The compound 169 (0.03, 0.1, and 0.6 mg/kg) was administered via oral gavage. The positive control was MGL3196 (1 mg/kg), and the blank control group consisted of mice of the same strain and age fed a normal diet for the same duration. The blank control and model control groups were given the vehicle (15% solutol + 85% DDW), totaling 6 groups. Administration was performed once daily for 28 days. After overnight fasting, on day 29 at the experimental endpoint, blood was collected from the heart after CO2 euthanasia. Serum ALT and AST biochemical indicators were measured, and liver tissue was harvested for hepatic hydroxyproline content determination.
# Blood was collected using anticoagulant-free tubes, allowed to stand at room temperature for 30 minutes, and then centrifuged at 4000 rpm for 10 minutes to separate serum, which was tested by Dian Diagnostics. Approximately 50 mg of liver tissue was taken from each mouse and tested according to the hydroxyproline assay kit method (Nanjing Jiancheng, Cat. No.: A030-2-1).
# as §1
# [2] = 0.03 mpk oral gavage once daily for 28 days
# [3] = 0.1 mpk oral gavage once daily for 28 days
# [4] = 0.6 mpk oral gavage once daily for 28 days
compound,measurement,setting,value
COc1ccc(F)c(N2CCC(c3oc4cc([C@@H](CC(=O)O)C5CC5)ccc4c3-c3ccc(C(C)(C)C)cc3)CC2)c1 [Compound 169],Blood Glucose,"[1]; 0.03 mg/kg oral gavage, 0 minutes after glucose (2 g/kg)",10.78 ± 0.81 mmol/L
same,Blood Glucose,"[1]; 0.03 mg/kg oral gavage, 15 minutes after glucose",20.08 ± 2.94 mmol/L
same,Blood Glucose,"[1]; 0.03 mg/kg oral gavage, 30 minutes after glucose",16.63 ± 3.66 mmol/L
same,Blood Glucose,"[1]; 0.03 mg/kg oral gavage, 60 minutes after glucose",14.62 ± 3.62 mmol/L
same,Blood Glucose,"[1]; 0.03 mg/kg oral gavage, 90 minutes after glucose",14.92 ± 2.34 mmol/L
same,Blood Glucose,"[1]; 0.03 mg/kg oral gavage, 150 minutes after glucose",10.75 ± 1.1 mmol/L
same,Blood Glucose,"[1]; 0.1 mg/kg oral gavage, 0 minutes after glucose (2 g/kg)",9.28 ± 2.89 mmol/L
same,Blood Glucose,"[1]; 0.1 mg/kg oral gavage, 15 minutes after glucose",17.65 ± 2.09 mmol/L
same,Blood Glucose,"[1]; 0.1 mg/kg oral gavage, 30 minutes after glucose",18.67 ± 4.11 mmol/L
same,Blood Glucose,"[1]; 0.1 mg/kg oral gavage, 60 minutes after glucose",13.53 ± 3.03 mmol/L
same,Blood Glucose,"[1]; 0.1 mg/kg oral gavage, 90 minutes after glucose",10.27 ± 1.68 mmol/L
same,Blood Glucose,"[1]; 0.1 mg/kg oral gavage, 120 minutes after glucose",10.05 ± 1.47 mmol/L
same,Blood Glucose,"[1]; 0.1 mg/kg oral gavage, 150 minutes after glucose",10.17 ± 1.68 mmol/L
same,Blood Glucose,"[1]; 0.6 mg/kg oral gavage, 0 minutes after glucose (2 g/kg)",9.57 ± 2.06 mmol/L
same,Blood Glucose (mmol/L),"[1]; 0.6 mg/kg oral gavage, 15 minutes after glucose",16.48± 2.15** * mmol/L
same,Blood Glucose,"[1]; 0.6 mg/kg oral gavage, 30 minutes after glucose",12.97 ± 3.71 mmol/L
same,Blood Glucose,"[1]; 0.6 mg/kg oral gavage, 60 minutes after glucose",11.98 ± 2.95 mmol/L
same,Blood Glucose,"[1]; 0.6 mg/kg oral gavage, 90 minutes after glucose",11.27 ± 2.66 mmol/L
same,Blood Glucose,"[1]; 0.6 mg/kg oral gavage, 120 minutes after glucose",9.12 ± 2.14 mmol/L
same,Blood Glucose,"[1]; 0.6 mg/kg oral gavage, 150 minutes after glucose",9.52 ± 1.62 mmol/L
same,Blood Glucose,"[1]; 3 mg/kg oral gavage, 0 minutes after glucose (2 g/kg)",13.02 ± 2.46 mmol/L
same,Blood Glucose,"[1]; 3 mg/kg oral gavage, 15 minutes after glucose",17.22 ± 2.02 mmol/L
same,Blood Glucose,"[1]; 3 mg/kg oral gavage, 30 minutes after glucose",14 ± 3.49 mmol/L
same,Blood Glucose,"[1]; 3 mg/kg oral gavage, 60 minutes after glucose",10.52 ± 2.23 mmol/L
same,Blood Glucose,"[1]; 3 mg/kg oral gavage, 90 minutes after glucose",9.88 ± 0.85 mmol/L
same,Blood Glucose,"[1]; 3 mg/kg oral gavage, 120 minutes after glucose",8.3 ± 1.63 mmol/L
same,Blood Glucose (mmol/L),"[1]; 3 mg/kg oral gavage, 150 minutes after glucose",7.37±1.44* * mmol/L
same,AUC0-150 min,"[1]; blood glucose AUC, 0.03 mg/kg oral gavage",2194 ± 132.70 mmol·min
same,AUC0-150 min (mmol*min),"[1]; blood glucose AUC, 0.1 mg/kg oral gavage, 0.1 mg/kg",significantly reduced
same,AUC0-150 min (mmol*min),"[1]; blood glucose AUC, 0.6 mg/kg oral gavage, 0.6 mg/kg",1725± 119.90 **** mmol*min
same,AUC0-150 min (mmol*min),"[1]; blood glucose AUC, 0.6 mg/kg oral gavage, listed as compound 169, 0.6 mg/kg",significantly reduced
same,AUC0-150 min (mmol*min),"[1]; blood glucose AUC, 3 mg/kg oral gavage, 3 mg/kg",1642±91.83 **** mmol*min
same,AUC0-150 min (mmol*min),"[1]; blood glucose AUC, 3 mg/kg oral gavage, listed as compound 169, 3 mg/kg",significantly reduced
same,Hepatic Hydroxyproline,C57BL6/J mice; [2],128.06 ± 55.18 µg/g
same,Total Liver Hydroxyproline (µg/liver),C57BL6/J mice; [2],308.56±121.44 µg/liver
same,ALT (U/L),C57BL6/J mice; [2],148±81.95 U/L
same,AST (U/L),C57BL6/J mice; [2],204.5±79.09 U/L
same,Hepatic Hydroxyproline,C57BL6/J mice; [3],119.16 ± 39.65 µg/g
same,Total Liver Hydroxyproline (µg/liver),C57BL6/J mice; [3],266.4±80.67 µg/liver
same,ALT (U/L),C57BL6/J mice; [3],110±37.12 U/L
same,AST (U/L),C57BL6/J mice; [3],156±30.59 U/L
same,Hepatic Hydroxyproline,C57BL6/J mice; [4],85.24 ± 47.63 µg/g
same,Total Liver Hydroxyproline (µg/liver),C57BL6/J mice; [4],187.94±110.56 µg/liver
same,ALT (U/L),C57BL6/J mice; [4],103.8±35.53 U/L
same,AST (U/L),C57BL6/J mice; [4],163.2±42.98 U/L
same,liver protection and liver fibrosis inhibition effects,"C57BL6/J mice; doses of 0.03, 0.1, and 0.6 mg/kg, compared with the model control","reduced ALT, AST, and liver hydroxyproline levels"
